This is an account of results in patent US8716247B2, “Peptides effective in the treatment of tumors and other conditions requiring the removal or destruction of cells” (Nymox Corporation, priority 2006, dated 2014).

Where no end group is shown, it is not given here.

This assay concerns prostate. As to the kind of experiment: Intraprostatic infusion of S05A Peptides in rats: histological changes of cell death and prostate volume. The assay is classed as in vivo, Male Sprague-Dawley rats. Further details: key to Histological Changes of Cell Death at 24 Hours / Histological Changes of Cell Death at 72 Hours: −: Absent; +: Present, Minimal; ++: Present, Moderate; +++: Present, Moderate and Diffuse; ++++: Present, Diffuse and Extensive. As to conditions: for histological findings in prostate of treated rats: rat prostate after intraprostatic infusion, 1.0 mg/kg; for Calculated Mean Volume 24 Hours / Calculated Mean Volume 72 Hours / Calculated Mean Volume 7 Days: rat prostate volume from mean cross-sectional diameters, V=4/3π(D/2)^3; for Calculated Mean Volume 24 Hours / Calculated Mean Volume 72 Hours / Calculated Mean Volume 7 Days / Calculated Mean Volume Overall: 1.0 mg/kg intraprostatic; for Calculated Mean Volume Overall: rat prostate volume, overall across 24 hours, 72 hours and 7 days; for Histological Changes of Cell Death at 24 Hours / Histological Changes of Cell Death at 72 Hours: rat prostate, intraprostatic infusion 300 μl of 1 mg/mL in PBS pH 7.4 (1.0 mg/kg), H & E sections. As to the method:
The purpose of this example was to determine the effect of S05A Peptides on tissue at sites of injection.
Male Sprague-Dawley rats (300 gram weight range) were anesthetized with ether and given one of the above S05A Peptides by intraprostatic infusion, a control injection of normal saline or no injection after open surgical visualization of the prostate. The injections consisted of 300 μl of the S05A Peptide 1 mg/mL in PBS pH 7.4. (1.0 mg/kg) (n=36). Rats were painlessly sacrificed after 24 hours (n=12), 72 hours (n=12) and 7 days (n=12). Prostate glands were dissected, fixed in 10% buffered formalin for 24 hours, embedded in paraffin, sectioned, and stained with H & E. For each animal the entire prostate gland was embedded and sectioned. All stained sections were examined histologically and measured. For each prostate at least […] histological sections were examined, and for each histological section two cross-sectional diameters (D) at 90° from each other were measured (total of ≧8 measurements per prostate). The mean of the cross-sectional diameters (D) for each group was used to estimate volume according to V=4/3π(D/2)^3 and the mean volume calculated for each group. Histological changes were assessed on the following scale:
+++ Present, Moderate and Diffuse
++++ Present, Diffuse and Extensive

As for IDQQVLSRI [S05A-2], the “histological findings in prostate of treated rats” value is “extensive cell death, necrosis, loss of glandular epithelium and atrophy”; the “Calculated Mean Volume 24 Hours” value is given as 180 mm^3; the “Calculated Mean Volume 72 Hours” value is 249 mm^3; the “Calculated Mean Volume 7 Days” value is given as 165 mm^3. For the same substance, the “Calculated Mean Volume Overall” value is recorded as 198 mm^3, the “Histological Changes of Cell Death at 24 Hours” value is listed as “++++” and the “Histological Changes of Cell Death at 72 Hours” value is recorded as “++++”.
With IDQQVLSRIKLEI [S05A-7], the “histological findings in prostate of treated rats” value was “extensive cell death, necrosis, loss of glandular epithelium and atrophy”; the “Calculated Mean Volume 24 Hours” value is listed as 180 mm^3; the “Calculated Mean Volume 72 Hours” value is listed as 165 mm^3; the “Calculated Mean Volume 7 Days” value is reported as 357 mm^3. Moreover, the “Calculated Mean Volume Overall” value is recorded as 234 mm^3, the “Histological Changes of Cell Death at 24 Hours” value is reported as “++++” and the “Histological Changes of Cell Death at 72 Hours” value is given as “++++”.
Turning to KLEIKRCL [S05A-3], the “Calculated Mean Volume 24 Hours” value is reported as 249 mm^3, the “Calculated Mean Volume 72 Hours” value is given as 435 mm^3, the “Calculated Mean Volume 7 Days” value was 463 mm^3 and the “Calculated Mean Volume Overall” value is reported as 382 mm^3. Also, the “Histological Changes of Cell Death at 24 Hours” value is “+” and the “Histological Changes of Cell Death at 72 Hours” value was “+”.
For RIKLEIK [S05A-5], the “Calculated Mean Volume 24 Hours” value is 249 mm^3, the “Calculated Mean Volume 72 Hours” value was 408 mm^3, the “Calculated Mean Volume 7 Days” value was 392 mm^3 and the “Calculated Mean Volume Overall” value is 350 mm^3. Further, the “Histological Changes of Cell Death at 24 Hours” value is “+” and the “Histological Changes of Cell Death at 72 Hours” value is “+”.
Regarding VLSRIK [S05A-4], the “Calculated Mean Volume 24 Hours” value is on record as 357 mm^3, the “Calculated Mean Volume 72 Hours” value was 408 mm^3, the “Calculated Mean Volume 7 Days” value is given as 333 mm^3 and the “Calculated Mean Volume Overall” value is recorded as 366 mm^3. Besides, the “Histological Changes of Cell Death at 24 Hours” value was “+” and the “Histological Changes of Cell Death at 72 Hours” value is “+”.
For the substance VLSRIKLEIKRCL [S05A-6], the “Calculated Mean Volume 24 Hours” value is 310 mm^3, the “Calculated Mean Volume 72 Hours” value is 493 mm^3, the “Calculated Mean Volume 7 Days” value is 408 mm^3 and the “Calculated Mean Volume Overall” value is given as 404 mm^3. For the same substance, the “Histological Changes of Cell Death at 24 Hours” value was “+” and the “Histological Changes of Cell Death at 72 Hours” value is “+”.
